Ends that are not written are not given here.
Experiments:
Type in all cases: cell-based, mouse
[1] = tested on: T2K^d cells loaded with SPARC K^d peptide; experiment: Cr-release assay of peptide-induced killer T cells on peptide-loaded T2K^d cells; conditions: T2K^d cells loaded with the SPARC K^d peptide; 4 hours co-culture; CTL from BM-DC-immunized BALB/c mice
Description: (§1) Bone marrow-derived dendritic cells (BM-DC) were induced from bone marrow cells derived from BALBc bone marrow by using GM-CSF as described previously by us (Nakatsura, T et al., Clin Cancer Res 10, 8630-8640, 2004). Thus the obtained BM-DC were cultured with a mixture of the 4 types of peptides selected as described above at a concentration of 10 μM for 2 hours, and the peptide-pulsed BM-DC (5×10^5 cells) were then intraperitoneally administered to each mouse. After an interval of 1 week, the same peptide-pulsed BM-DC were administered to the mouse twice, so that the mouse was strongly immunized. Thereafter, the spleen cells of the mouse were recovered and induction of killer T cells was evaluated. In order to strictly analyze induction of killer T cells derived from CD8^+ T cells, after collection of the spleen, CD4^+ T cells were eliminated from the collected spleen cells, using MACS beads, and the remaining cells were then used for analysis.
(§2) The following protocols were used for generation and characterization of SPARC-specific killer T cells (The day of recovering the spleen cells from the immunized mouse was defined as Day 0.) • Day-21 (1) GM-CSF was added to the bone marrow cells of a BALB/c mouse, so as to start induction of bone marrow-derived dendritic cells (hereinafter referred to as BM-DC). • Day-14 (2) A mixture of the 4 types of SPARC peptides was added to the induced BM-DC, and 2 hours later, 5×10^5 cells were intraperitoneally administered to each mouse. • Steps (1) and (2) were repeated twice every other week. • Day 0 The spleen cells of the immunized BALB/c mouse were recovered. The cells were co-cultured with BM-DC prepulsed with each SPARC peptide for 2 hours. […]
(§3) The cytotoxic activity of the induced SPARC-specific killer T cells on tumor cells was analyzed as follows. […] Thereafter, a culture supernatant was recovered, and the amount of radioactive Cr released from dead cells was quantified, so that cytotoxic activity was detected.

Meth A cell line = experiment: Cr-release assay of peptide-induced killer T cells on Meth A cells; conditions: spontaneously expressing SPARC, 4 hours co-culture
Description: as §1, §2, §3

BALB/3T3 cell line = experiment: Cr-release assay of peptide-induced killer T cells on BALB/3T3 cells; conditions: BALB/3T3, spontaneously expressing SPARC; 4 hours co-culture
Description: as §1, §2, §3

Measured: Cytotoxicity of induced killer T cells (Cr release)

DYIGPCKYI [SPARC- K^d-1, DYIGPCKYI]
cytotoxicity was observed: all assays above

EFPLRMRDWL [SPARC- K^d-3, EFPLRMRDWL]
cytotoxicity was observed: all assays above

MYIFPVHWQF [SPARC- K^d-4, MYIFPVHWQF]
cytotoxicity was observed: all assays above

Reference: patent US8470968B2, “SPARC-derived tumor rejection antigenic peptides and medicaments comprising the same” (Onco Therapy Science, Inc., priority 2006, dated 2013)
